The source made the active and inactive calls. The rule behind the calls is not given here.
Tests used:
Assay type in all cases: functional, organism-based
Felis catus [1] = assay: Ganglion-stimulant activity in cat assessed as pressor response up to 1000 ug/kg, iv
Felis catus [2] = assay: Ganglion-stimulant activity in iv dosed cat assessed as depressor response
Felis catus [3] = assay: Inhibition of McN-A-343-induced pressor response in iv dosed cat

| SMILES | Activity (Felis catus [1]) | Activity (Felis catus [2]) | inhibition (Felis catus [3]) |
| --- | --- | --- | --- |
| C[N+](C)(C)C[C@H]1[C@@H](COC(=O)Nc2ccc(Cl)cc2)[C@H]2C=C[C@H]1C2 | inactive | inactive | inactive |
| C[N+](C)(C)C[C@@H]1[C@H]2CC[C@@H](C2)[C@H]1COC(=O)Nc1ccc(Cl)cc1 | inactive | inactive | inactive |
| C[N+](C)(C)C[C@H]1[C@H](COC(=O)Nc2ccc(Cl)cc2)[C@H]2C=C[C@H]1C2 | inactive | inactive | inactive |
| C[N+](C)(C)C[C@@H]1[C@H](COC(=O)Nc2ccc(Cl)cc2)[C@H]2C=C[C@H]1C2 | inactive | inactive | inactive |
| C[N+](C)(C)C[C@@H]1[C@H]2CC[C@@H](C2)[C@@H]1COC(=O)Nc1ccc(Cl)cc1 | inactive | inactive | inactive |
| C[N+](C)(C)C[C@H]1[C@H]2CC[C@@H](C2)[C@@H]1COC(=O)Nc1ccc(Cl)cc1 | inactive | inactive | inactive |
| C[N+](C)(C)CC#CCOC(=O)Nc1cccc(Cl)c1 | Active |  |  |
| C[N+](C)(C)C[C@@H]1[C@@H](COC(=O)Nc2ccc(Cl)cc2)[C@H]2C=C[C@H]1C2 | inactive | inactive | inactive |
| C[N+](C)(C)C[C@H]1[C@H]2CC[C@@H](C2)[C@H]1COC(=O)Nc1ccc(Cl)cc1 | inactive | inactive | inactive |
